# Measurements: patent US11124538B2, “Neuroactive steroids, compositions, and uses thereof” (Sage Therapeutics, Inc., priority 2015, dated 2021)
# Molecular target: [35S]-TBPS binding to rat brain cortical membranes in the presence of 5 μM GABA (GABA receptor complex)
# Assay: Steroid inhibition of [35S]-TBPS binding (radioligand displacement)
# Conditions: 3 nM [35S]-TBPS
# Method: TBPS binding assays using rat brain cortical membranes in the presence of 5 μM GABA has been described (Gee et al, J. Pharmacol. Exp. Ther. 1987, 241, 346-353; Hawkinson et al, Mol. Pharmacol. 1994, 46, 977-985; Lewin, A. H et al., Mol. Pharmacol. 1989, 35, 189-194).
# Briefly, cortices are rapidly removed following decapitation of carbon dioxide-anesthetized Sprague-Dawley rats (200-250 g). The cortices are homogenized in 10 volumes of ice-cold 0.32 M sucrose using a glass/teflon homogenizer and centrifuged at 1500×g for 10 min at 4° C. The resultant supernatants are centrifuged at 10,000×g for 20 min at 4° C. to obtain the P2 pellets. The P2 pellets are resuspended in 200 mM NaCl/50 mM Na—K phosphate pH 7.4 buffer and centrifuged at 10,000×g for 10 min at 4° C. This washing procedure is repeated twice and the pellets are resuspended in 10 volumes of buffer. Aliquots (100 μL) of the membrane suspensions are incubated with 3 nM [^35S]-TBPS and 5 μL aliquots of test drug dissolved in dimethyl sulfoxide (DMSO) (final 0.5%) in the presence of 5 μM GABA. The incubation is brought to a final volume of 1.0 mL with buffer. […] Following a 90 min incubation at room temp, the assays are terminated by filtration through glass fiber filters (Schleicher and Schuell No. 32) using a cell harvester (Brandel) and rinsed three times with ice-cold buffer. Filter bound radioactivity is measured by liquid scintillation spectrometry. Non-linear curve fitting of the overall data for each drug averaged for each concentration is done using Prism (GraphPad). […] The concentration of test compound producing 50% inhibition (IC50) of specific binding and the maximal extent of inhibition (Imax) are determined for the individual experiments with the same model used for the overall data and then the means±SEM.s of the individual experiments are calculated.
# Various compounds are or can be screened to determine their potential as modulators of [^35S]-TBPS binding in vitro. These assays are or can be performed in accordance with the above discussed procedures.
row,Structure (SMILES),IC50 [nM]
1,COC[C@]12CC[C@@](C)(O)C[C@H]1CC[C@H]1[C@@H]3CC[C@H](C(=O)Cn4nc5cc(Cl)cnc5n4)[C@@]3(C)CC[C@@H]12 [Compound 13],< 10
2,COC[C@]12CC[C@@](C)(O)C[C@H]1CC[C@H]1[C@@H]3CC[C@H](C(=O)Cn4cc5ccc(F)cc5n4)[C@@]3(C)CC[C@@H]12 [Compound 14],< 10
3,COC[C@]12CC[C@@](C)(O)C[C@@H]1CC[C@H]1[C@@H]3CC[C@H](C(=O)Cn4ncc(CO)n4)[C@@]3(C)CC[C@@H]12 [Compound 85],> 500
4,COC[C@]12CC[C@@](C)(O)C[C@H]1CC[C@H]1[C@@H]3CC[C@H](C(=O)Cn4nnc5ccccc54)[C@@]3(C)CC[C@@H]12 [Compound 18],< 10
5,CC(C)OC[C@]12CC[C@@](C)(O)C[C@H]1CC[C@H]1[C@@H]3CC[C@H](C(=O)Cn4nnc5ccc(F)c(F)c54)[C@@]3(C)CC[C@@H]12 [Compound 69],< 10
6,COC[C@]12CC[C@@](C)(O)C[C@H]1CC[C@H]1[C@@H]3CC[C@H](C(=O)Cn4ncc5ccc(F)cc54)[C@@]3(C)CC[C@@H]12 [Compound 15],< 10
7,COC[C@]12CC[C@@](C)(O)C[C@H]1CC[C@H]1[C@@H]3CC[C@H](C(=O)Cn4nnc5cc(Cl)cnc54)[C@@]3(C)CC[C@@H]12 [Compound 12],< 10
8,CC(C)OC[C@]12CC[C@@](C)(O)C[C@H]1CC[C@H]1[C@@H]3CC[C@H](C(=O)Cn4nc5ccc(F)c(F)c5n4)[C@@]3(C)CC[C@@H]12 [Compound 70],< 10
9,COC[C@]12CC[C@@](C)(O)C[C@H]1CC[C@H]1[C@@H]3CC[C@H](C(=O)Cn4nnc5cc(OC)ccc54)[C@@]3(C)CC[C@@H]12 [Compound 26],< 10
10,COC[C@]12CC[C@@](C)(O)C[C@H]1CC[C@H]1[C@@H]3CC[C@H](C(=O)Cn4nnc5cccc(OC)c54)[C@@]3(C)CC[C@@H]12 [Compound 29],< 10
11,COC[C@]12CC[C@@](C)(O)C[C@H]1CC[C@H]1[C@@H]3CC[C@H](C(=O)Cn4nnc5ccc(OC)cc54)[C@@]3(C)CC[C@@H]12 [Compound 25],< 10
12,COC[C@]12CC[C@@](C)(O)C[C@@H]1CC[C@H]1[C@@H]3CC[C@H](C(=O)Cn4cc([S+](C)[O-])cn4)[C@@]3(C)CC[C@@H]12 (stereo partly shown) [Compound 35],> 500
13,COC[C@]12CC[C@@](C)(O)C[C@H]1CC[C@H]1[C@@H]3CC[C@H](C(=O)Cn4nc5ccc(Cl)c(F)c5n4)[C@@]3(C)CC[C@@H]12 [Compound 24],< 10
14,COC[C@]12CC[C@@](C)(O)C[C@H]1CC[C@H]1[C@@H]3CC[C@H](C(=O)Cn4nc5ccc(OC)cc5n4)[C@@]3(C)CC[C@@H]12 [Compound 27],< 10
15,COC[C@]12CC[C@@](C)(O)C[C@H]1CC[C@H]1[C@@H]3CC[C@H](C(=O)Cn4cc5ccncc5n4)[C@@]3(C)CC[C@@H]12 [Compound 46],10 to 50
16,COC[C@]12CC[C@@](C)(O)C[C@H]1CC[C@H]1[C@@H]3CC[C@H](C(=O)Cn4nc5cccc(OC)c5n4)[C@@]3(C)CC[C@@H]12 [Compound 30],< 10
17,COC[C@]12CC[C@@](C)(O)C[C@H]1CC[C@H]1[C@@H]3CC[C@H](C(=O)Cn4cc(SC)cn4)[C@@]3(C)CC[C@@H]12 [Compound 21],< 10
18,COC[C@]12CC[C@@](C)(O)C[C@@H]1CC[C@H]1[C@@H]3CC[C@H](C(=O)Cn4ncc(C(=O)O)n4)[C@@]3(C)CC[C@@H]12 [Compound 81],> 500
19,COC[C@]12CC[C@@](C)(O)C[C@H]1CC[C@H]1[C@@H]3CC[C@H](C(=O)Cn4nnc5c(OC)cccc54)[C@@]3(C)CC[C@@H]12 [Compound 28],< 10
20,COC[C@]12CC[C@@](C)(O)C[C@@H]1CC[C@H]1[C@@H]3CC[C@H](C(=O)Cn4nnc5c(F)c(Cl)ccc54)[C@@]3(C)CC[C@@H]12 [Compound 51],< 10
21,CC(C)OC[C@]12CC[C@@](C)(O)C[C@H]1CC[C@H]1[C@@H]3CC[C@H](C(=O)Cn4ncnn4)[C@@]3(C)CC[C@@H]12 [Compound 72],< 10
22,COC[C@]12CC[C@@](C)(O)C[C@@H]1CC[C@H]1[C@@H]3CC[C@H](C(=O)Cn4cc(SC)cn4)[C@@]3(C)CC[C@@H]12 [Compound 34],10 to 50
23,CC(C)OC[C@]12CC[C@@](C)(O)C[C@H]1CC[C@H]1[C@@H]3CC[C@H](C(=O)Cn4nnc5c(F)c(F)ccc54)[C@@]3(C)CC[C@@H]12 [Compound 68],< 10
24,COC[C@]12CC[C@@](C)(O)C[C@@H]1CC[C@H]1[C@@H]3CC[C@H](C(=O)Cn4cc(C(=O)O)nn4)[C@@]3(C)CC[C@@H]12 [Compound 82],> 500
25,COC[C@]12CC[C@@](C)(O)C[C@H]1CC[C@H]1[C@@H]3CC[C@H](C(=O)Cn4nc5cc(F)cc(F)c5n4)[C@@]3(C)CC[C@@H]12 [Compound 10],< 10
